Measured values: patent publication US20260034044A1, “A PRESERVATIVE COMPOSITION” (AnalytiCon Discovery - Zweigniederlassung der BRAIN Biotech …, priority 2022, published 2026)
In brackets after ≈: the same amount, converted by molar mass.

Legend:
Experiment in all cases: Antimicrobial activity (MIC)
Assay type in all cases: cell-based
[1] = test system: Alicyclobacillus acidoterrestris DSM 2498; conditions: DSM2498, potato dextrose broth pH 3.8, visual evaluation, read-out: Minimal Inhibitory Concentration (MIC)
Bacillus cereus DSM4490 = conditions: potato dextrose broth pH 3.8, visual evaluation, read-out: Minimal Inhibitory Concentration (MIC)
[2] = test system: Bacillus licheniformis DSM 13; conditions: DSM13, potato dextrose broth pH 3.8, visual evaluation, read-out: Minimal Inhibitory Concentration (MIC)
[3] = test system: Byssochlamys fulva DSM 1808; conditions: Paecilomyces fulvus, DSM1808, potato dextrose broth pH 3.8, visual evaluation, read-out: Minimal Inhibitory Concentration (MIC)
[4] = test system: Candida albicans ATCC10231; conditions: potato dextrose broth pH 3.8, visual evaluation, read-out: Minimal Inhibitory Concentration (MIC)
[5] = test system: Cladosporium cladosporioides DSM19653; conditions: potato dextrose broth pH 3.8, visual evaluation, read-out: Minimal Inhibitory Concentration (MIC)
[6] = test system: Gluconacetobacter liquefaciens DSM 5603; conditions: DSM5603, potato dextrose broth pH 3.8, visual evaluation, read-out: Minimal Inhibitory Concentration (MIC)
[7] = test system: Lactobacillus plantarum ssp. plantarum DSM 20174; conditions: Lactiplantibacillus plantarum, DSM20174, potato dextrose broth pH 3.8, visual evaluation, read-out: Minimal Inhibitory Concentration (MIC)
[8] = test system: Leuconostoc lactis DSM 20202; conditions: DSM20202, potato dextrose broth pH 3.8, visual evaluation, read-out: Minimal Inhibitory Concentration (MIC)
[9] = test system: Leuconostoc mesenteroides ssp. mesenteroides DSM 20343; conditions: DSM20343, potato dextrose broth pH 3.8, visual evaluation, read-out: Minimal Inhibitory Concentration (MIC)
[10] = test system: Malassezia furfur DSM 6170; conditions: DSM6170, potato dextrose broth pH 3.8, visual evaluation, read-out: Minimal Inhibitory Concentration (MIC)
[11] = test system: Pasteurella multocida ssp. multocida DSM 16031; conditions: DSM16031, potato dextrose broth pH 3.8, visual evaluation, read-out: Minimal Inhibitory Concentration (MIC)
[12] = test system: Pseudomonas aeruginosa DSM 1117; conditions: DSM1117, potato dextrose broth pH 3.8, visual evaluation, read-out: Minimal Inhibitory Concentration (MIC)
[13] = test system: Saccharomyces cerevisiae DSM 2548; conditions: DSM2548, potato dextrose broth pH 3.8, visual evaluation, read-out: Minimal Inhibitory Concentration (MIC)
[14] = test system: Salmonella enterica ssp. enterica Ser. typhimurium DSM 17058; conditions: potato dextrose broth pH 3.8, visual evaluation, read-out: Minimal Inhibitory Concentration (MIC)

| SMILES | MIC [1] [µg/mL] | MIC (Bacillus cereus DSM4490) [µg/mL] | MIC [2] [µg/mL] | MIC [3] [µg/mL] | MIC [4] [µg/mL] | MIC [5] [µg/mL] | MIC [6] [µg/mL] | MIC [7] [µg/mL] | MIC [8] [µg/mL] | MIC [9] [µg/mL] | MIC [10] [µg/mL] | MIC [11] [µg/mL] | MIC [12] [µg/mL] | MIC [13] [µg/mL] | MIC [14] [µg/mL] |
| --- | --- | --- | --- | --- | --- | --- | --- | --- | --- | --- | --- | --- | --- | --- | --- |
| C[C@@H]1CC[C@@]2(OC1)O[C@H]1CC3C4CC=C5CC(O[C@@H]6O[C@H](CO)[C@@H](O[C@@H]7O[C@@H](C)[C@H](O[C@@H]8O[C@@H](C)[C@H](O)[C@@H](O)[C@H]8O)[C@@H](O)[C@H]7O)[C@H](O)[C@H]6O[C@@H]6O[C@@H](C)[C@H](O)[C@@H](O)[C@H]6O)CC[C@]5(C)C4CC[C@]3(C)[C@@]1(O)[C@@H]2C (stereo partly drawn) [B] | 140 (≈ 136 µM) | > 80 | > 80 | > 80 | > 80 | > 80 | 40 (≈ 38.8 µM) | 400 (≈ 388 µM) | > 80 | > 80 | 80 (≈ 77.6 µM) | > 80 | > 80 | > 80 | > 80 |
| C[C@H]1CC[C@@]2(OC1)O[C@H]1CC3C4CC[C@H]5C[C@@H](O[C@@H]6O[C@H](CO)[C@H](O[C@@H]7O[C@H](CO)[C@@H](O)[C@H](O[C@@H]8OC[C@@H](O)[C@H](O)[C@H]8O)[C@H]7O[C@@H]7O[C@H](CO)[C@@H](O)[C@H](O)[C@H]7O)[C@H](O)[C@H]6O)[C@H](O)C[C@]5(C)C4=CC(=O)[C@]3(C)[C@H]1[C@@H]2C (stereo partly drawn) [A] | 40 (≈ 37.6 µM) | > 80 | > 80 | > 80 | > 80 | > 80 | 140 (≈ 132 µM) | 40 (≈ 37.6 µM) | 80 (≈ 75.2 µM) | > 80 | > 80 | > 80 | > 80 | > 80 | > 80 |
| CC1CC[C@@]2(OC1)O[C@H]1CC3C4CC=C5C[C@@H](O[C@@H]6O[C@H](CO)[C@@H](O[C@@H]7O[C@@H](C)[C@H](O)[C@@H](O)[C@H]7O)[C@H](O)[C@H]6O[C@@H]6O[C@@H](C)[C@H](O)[C@@H](O)[C@H]6O)CC[C@]5(C)C4CC[C@]3(C)[C@@]1(O)[C@@H]2C (stereo partly drawn) [C] | 80 (≈ 90.4 µM) | > 80 | > 80 | > 80 | > 80 | > 80 | 40 (≈ 45.2 µM) | 400 (≈ 452 µM) | > 80 | > 80 | 80 (≈ 90.4 µM) | > 80 | > 80 | > 80 | > 80 |
| C[C@H]1CC[C@@]2(OC1)O[C@H]1CC3C4CC[C@H]5C[C@@H](O[C@@H]6O[C@H](CO)[C@H](O[C@@H]7O[C@H](CO)[C@@H](O)[C@H](O)[C@H]7O[C@@H]7O[C@H](CO)[C@@H](O)[C@H](O)[C@H]7O)[C@H](O)[C@H]6O)[C@H](O)C[C@]5(C)C4=CC(=O)[C@]3(C)[C@H]1[C@@H]2C (stereo partly drawn) [D] | 40 (≈ 43 µM) | > 80 | > 80 | > 80 | > 80 | > 80 | 140 (≈ 150 µM) | 40 (≈ 43 µM) | 80 (≈ 85.9 µM) | > 80 | > 80 | > 80 | > 80 | > 80 | > 80 |
